Patent US8309546B2, “Morpholinopurine derivatives” (Daiichi Sankyo Company, Limited, priority 2008, dated 2012)

Legend:
PI3Kα = PI3Kα (Homo sapiens, UniProt P42336); assay: PI3K kinase activity inhibition assay; assay type: biochemical; details: Kinase-Glo Plus ATP detection, read-out: IC50 against PI3K
Method: PI3Kα kinase activity was determined in the presence and absence of a test compound. The test compound was dissolved in DMSO and diluted serially with an ATP solution (30 μm ATP, 50 mM HEPES, pH 7.4, 50 mM NaCl, 0.05% CHAPS, 10 mM MgCl2, and 5 mM dithiothreitol [DTT]). First, 7 μl each of the serially diluted test compound solutions was added to each well of a black 384-well plate. Subsequently, 7 μl of a phosphatidylinositol 4,5-bisphosphate (PIP2) solution (45 μm PIP2, 50 mM HEPES, pH 7.4, 50 mM NaCl, 0.05% CHAPS, 10 mM MgCl2, and 5 mM DTT) was added to each well of the 384-well plate. Finally, 7 μl of a solution containing PI3Kα (50 nM PI3Kα, 50 mM HEPES, pH 7.4, 50 mM NaCl, 0.05% CHAPS, 10 mM MgCl2, and 5 mM DTT) was added to each well of the 384-well plate to initiate a reaction. The mixture was reacted at room temperature for 2 hours and then 21 μl of the Kinase-Glo Plusreagent (Promega) was, added to each well of the 384-well plate to terminate the reaction. After the termination of the reaction, the solution was left standing for 15 minutes and then luminescence was measured with ARVO (PerkinElmer Co., Ltd.) to detect ATP remaining in the reaction solution.
The amount of ATP consumed in the reaction was obtained for each well and used as an indicator of PI3Kαkinase activity. The PI3Kα kinase activity in wells not containing the test compound was calculated by the following formula (1). Furthermore, the PI3Kα kinase activity in wells containing the test compound was calculated by the following formula (2). The PI3Kα inhibitory activity (%) of the test compound was calculated by the following formula (3). PI3Kα kinase activity in wells not containing the test compound=B−C (1) PI3Kα kinase activity in wells containing the test compound=B−P (2) PI3Kα inhibitory activity (%) of test compound=100−100×[(B−P)/(B−C)] (3) B: Measured value in wells not containing PI3Kα or the test compound C: Measured value in wells containing PI3Kα and not containing the test compound P: Measured value in wells containing PI3Kα and the test compound
Furthermore, an optimal curve was calculated with Graph Pad Prism 4 using concentrations of the serially diluted test compound solutions and PI3Kα inhibitory activity (%) at each concentration to obtain the concentration showing 50% inhibition as the IC50 value of PI3Kα inhibitory activity.

[1] = target: T1, human mTOR (His-tagged mTOR (1362C)) (Homo sapiens, UniProt P42345); assay: mTOR kinase activity inhibition assay; assay type: biochemical; details: HTRF, read-out: IC50 against mTOR
T1 construct: the 1362 to 2549 amino acid portion on the C terminus side of human mTOR; His tag (N); made in house
T1 sequence (P42345 1362-2549): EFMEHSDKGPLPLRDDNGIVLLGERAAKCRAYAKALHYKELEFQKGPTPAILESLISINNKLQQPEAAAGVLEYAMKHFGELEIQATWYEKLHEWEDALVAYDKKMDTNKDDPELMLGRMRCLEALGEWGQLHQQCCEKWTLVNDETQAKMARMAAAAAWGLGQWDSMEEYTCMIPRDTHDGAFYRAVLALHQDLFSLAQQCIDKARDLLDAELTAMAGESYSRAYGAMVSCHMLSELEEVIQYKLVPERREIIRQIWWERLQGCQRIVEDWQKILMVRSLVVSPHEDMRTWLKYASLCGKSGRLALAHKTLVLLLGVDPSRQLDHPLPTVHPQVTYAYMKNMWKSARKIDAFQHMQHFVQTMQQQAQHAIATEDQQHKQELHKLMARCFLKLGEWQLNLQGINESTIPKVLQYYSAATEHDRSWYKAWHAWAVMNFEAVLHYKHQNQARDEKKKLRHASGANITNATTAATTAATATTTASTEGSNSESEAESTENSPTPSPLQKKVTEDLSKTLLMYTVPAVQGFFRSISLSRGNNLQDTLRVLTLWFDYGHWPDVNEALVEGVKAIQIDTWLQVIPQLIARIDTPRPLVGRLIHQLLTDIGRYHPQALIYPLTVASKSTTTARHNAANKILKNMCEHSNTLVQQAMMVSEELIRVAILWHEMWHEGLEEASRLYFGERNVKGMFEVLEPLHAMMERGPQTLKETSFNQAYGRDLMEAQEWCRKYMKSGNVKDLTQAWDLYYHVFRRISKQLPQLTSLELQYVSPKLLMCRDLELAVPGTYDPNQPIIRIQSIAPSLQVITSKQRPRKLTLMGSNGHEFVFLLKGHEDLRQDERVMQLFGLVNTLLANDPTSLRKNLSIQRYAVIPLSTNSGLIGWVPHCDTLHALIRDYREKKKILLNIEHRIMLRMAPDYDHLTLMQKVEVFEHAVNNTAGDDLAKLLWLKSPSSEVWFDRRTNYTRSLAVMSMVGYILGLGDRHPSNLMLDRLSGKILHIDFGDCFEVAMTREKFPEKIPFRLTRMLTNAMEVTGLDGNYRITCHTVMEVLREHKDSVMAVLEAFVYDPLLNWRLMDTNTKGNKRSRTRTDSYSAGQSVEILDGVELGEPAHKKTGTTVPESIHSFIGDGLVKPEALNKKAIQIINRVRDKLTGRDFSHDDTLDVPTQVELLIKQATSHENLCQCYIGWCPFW
Method: The mTOR kinase activity was determined in the presence and absence of a test compound. A substrate peptide is phosphorylated by mTOR kinase activity. A complex of streptavidin-XL665 and anti-phosphorylated S6K (Thr389) antibody-anti-mouse IgG-cryptate binds to this phosphorylated peptide. At this time, irradiation of excitation light induces transfer of fluorescence resonance energy from the excited cryptate to XL665, emitting fluorescence at 665 nm. Utilizing this principle, mTOR kinase activity was detected. When the mTOR inhibitor is present, phosphorylation of a substrate peptide is inhibited, and the biding of the above-mentioned complex to the substrate peptide is inhibited.
A His tag was introduced into the N terminus end of the 1362 to 2549 amino acid portion on the C terminus side of human mTOR, and a cell line was prepared, so that His-tagged mTOR should be constantly expressed in a HEK293 cell. A cell lysate was prepared from this HEK293 cell which constantly expressed His-tagged mTOR (1362C), and a crude product of His-tagged mTOR (1362C) was obtained by a usual method utilizing His tag.
Subsequently, an mTOR enzyme solution was prepared which contained the above-mentioned His-tagged mTOR (1362C) enzyme and 8 μg/ml biotinylated peptide (Biotin-Ahx-[…]-amide [Sigma]), as well as 50 mM HEPES (pH 7.5), 20 mM MnCl2, 1 mg/ml BSA, a suitable amount of protease inhibitor cocktail (Complete EDTA free, Roche Ltd.), 100 ng/ml calyculin A, and 4 μg/ml cantharidin as other components.
The test compound was dissolved in dimethyl sulfoxide (DMSO) and serially diluted with 20 μm ATP solution (50 mM HEPES (pH 7.5), 20 μM ATP) to obtain concentrations required for the assay. 5 μl of this compound solution was added to each well of a 384-well small volume white plate manufactured by Greiner Bio-One Co., Ltd.
5 μl of the mTOR enzyme solution was added to the above-mentioned well containing the test compound and the resulting mixture was left standing for 3 hours room temperature to proceed an enzymatic reaction.
The same procedure was performed using a solution obtained by dissolving DMSO in 20 μM ATP solution as a positive control and a solution obtained by dissolving DMSO in 50 mM HEPES buffer (pH 7.5) as a negative control.
After the enzymatic reaction, 5 μl each of an europium solution (a solution obtained by dissolving anti-mouse IgG-cryptate [SCETI Medical Labo K.K.] and anti-phosphorylation S6K [Thr389] antibody [Cell Signaling Technology Inc.] in 50 mM HEPES [pH 7.5], 100 mM EDTA, and 1.5 mg/ml BSA) and an XL665 solution (a solution obtained by dissolving Streptavidin-XL 665 [SCETI Medical Labo K.K.] in 50 mM HEPES [pH 7.5], 100 mM EDTA, 0.8 M KF, and 1.5 mg/ml BSA) were added in this order and mixed and the resulting mixture was left standing overnight at 4° C. On the following day, the mixture was returned to room temperature and then irradiated with 337-nm excitation light and fluorescence at 620 and 665 nm was measured with RUBYstar (BMG LABTECH JAPAN Ltd.).
mTOR inhibitory activity (%) was calculated using the ratio calculated from the measured values as an indicator of enzyme activity. Here, the ratio was calculated by the following formula (1). Ratio=10,000×fluorescence at 665 nm/fluorescence at 620 nm (1)
mTOR enzyme inhibitory activity (%) was calculated by the following formula (2). mTOR enzyme inhibitory activity (%)=100×[(P−S)/(P−N)] (2) P: Ratio in positive control well N: Ratio in negative control well S: Ratio in well containing the test compound
Furthermore, an optimal curve was created using the concentrations of the serially diluted test compound solutions and mTOR enzyme inhibitory activity (%) at each concentration to obtain the concentration showing 50% inhibition as the IC50 value of mTOR enzyme inhibitory activity.

[2] = test system: human endometrial cancer cell strain AN3CA; assay: Cell growth inhibition test (MTT), AN3CA; assay type: cell-based; details: AN3-CA, 72 h, 3 days culture, read-out: concentration exhibiting anti-cell effect (GI50)
Method: (§1) After a cultured cancer cell strain was treated with a test compound for a predetermined period, a cell growth inhibition test was performed by measuring the living cell count by the 3-(4,5-dimethylthiazol-2-yl)-2,5-diphenyltetrazoliumbromide (MTT) method.
(§2) Human endometrial cancer cell strain AN3CA, human ovary cancer cell strain IGROV1, and human colon cancer cell strain HT29 were seeded in a 96-well plate at 5000, 1000, and 5000 cells, respectively, per well. On the following day of seeding, a test compound having a predetermined concentration was added and the culture was continued at 37° C. in 5% CO2 for 3 days. On the final day of culture, an MTT reaction solution was added and the resulting mixture was reacted for 4 hours to form formazan by dehydrogenases contained in living cells. Subsequently, the culture broth was removed, DMSO was added to solubilize formazan, and the amount of produced formazan was determined by measuring absorbance at 540 nm using a microplate reader.
(§3) Since correlations of the amount of produced formazan and the living cell count had been confirmed, the cell growth rate was calculated by the following formula. Cell growth rate (T/C %) after addition of test compound=100×[(B−C)/(A−C)] A: Absorbance of well not containing test compound (final culture day) B: Absorbance of well containing test compound (final culture day) C: Absorbance of well immediately before addition of test compound (following day of cell seeding)
(§4) Furthermore, the cell growth rate at each concentration of serially diluted test compound solutions was obtained, and the concentration of the test compound resulting in a 50% growth rate was obtained as the GI50 value from two concentrations including 50% therebetween and the growth rates were selected.

[3] = test system: human ovary cancer cell strain IGROV1; assay: Cell growth inhibition test (MTT), IGROV1; assay type: cell-based; details: IGROV-1, 72 h, IGROV1, 3 days culture, read-out: concentration exhibiting anti-cell effect (GI50)
Method: as §1, §2, §3, §4

[4] = test system: human colon cancer cell strain HT29; assay: Cell growth inhibition test (MTT), HT29; assay type: cell-based; details: HT-29, 72 h, HT29, 3 days culture, read-out: concentration exhibiting anti-cell effect (GI50)
Method: as §1, §2, §3, §4

Sequence of PI3Kα (P42336 whole entry, species assumed): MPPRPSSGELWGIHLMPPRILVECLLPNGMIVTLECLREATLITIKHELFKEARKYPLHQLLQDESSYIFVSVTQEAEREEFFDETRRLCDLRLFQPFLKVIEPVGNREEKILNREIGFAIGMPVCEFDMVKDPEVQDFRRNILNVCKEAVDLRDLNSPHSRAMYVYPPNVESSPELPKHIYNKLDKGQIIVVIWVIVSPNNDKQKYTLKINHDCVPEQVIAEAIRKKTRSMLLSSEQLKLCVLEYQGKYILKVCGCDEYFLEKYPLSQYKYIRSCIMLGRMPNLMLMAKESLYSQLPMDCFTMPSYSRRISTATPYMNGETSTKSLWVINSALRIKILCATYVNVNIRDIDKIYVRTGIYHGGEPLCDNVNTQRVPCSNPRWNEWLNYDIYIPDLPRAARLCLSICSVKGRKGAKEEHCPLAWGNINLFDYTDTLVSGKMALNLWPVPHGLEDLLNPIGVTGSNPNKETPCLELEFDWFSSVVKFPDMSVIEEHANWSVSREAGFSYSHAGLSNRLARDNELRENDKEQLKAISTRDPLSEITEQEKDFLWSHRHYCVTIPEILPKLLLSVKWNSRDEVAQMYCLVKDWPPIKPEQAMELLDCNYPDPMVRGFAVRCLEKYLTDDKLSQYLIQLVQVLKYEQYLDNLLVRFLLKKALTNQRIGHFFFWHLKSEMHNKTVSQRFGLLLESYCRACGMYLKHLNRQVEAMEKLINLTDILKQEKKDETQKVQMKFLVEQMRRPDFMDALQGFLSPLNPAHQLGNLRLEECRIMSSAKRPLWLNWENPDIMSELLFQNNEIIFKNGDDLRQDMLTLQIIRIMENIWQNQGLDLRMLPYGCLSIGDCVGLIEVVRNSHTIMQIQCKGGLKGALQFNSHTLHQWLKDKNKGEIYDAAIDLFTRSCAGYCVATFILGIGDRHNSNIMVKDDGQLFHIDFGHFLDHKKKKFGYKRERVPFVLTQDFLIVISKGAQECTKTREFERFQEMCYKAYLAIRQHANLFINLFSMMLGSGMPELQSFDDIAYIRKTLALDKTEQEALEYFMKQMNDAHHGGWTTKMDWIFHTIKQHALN
Sequence of PI3Kα (P27986 whole entry partner, species assumed): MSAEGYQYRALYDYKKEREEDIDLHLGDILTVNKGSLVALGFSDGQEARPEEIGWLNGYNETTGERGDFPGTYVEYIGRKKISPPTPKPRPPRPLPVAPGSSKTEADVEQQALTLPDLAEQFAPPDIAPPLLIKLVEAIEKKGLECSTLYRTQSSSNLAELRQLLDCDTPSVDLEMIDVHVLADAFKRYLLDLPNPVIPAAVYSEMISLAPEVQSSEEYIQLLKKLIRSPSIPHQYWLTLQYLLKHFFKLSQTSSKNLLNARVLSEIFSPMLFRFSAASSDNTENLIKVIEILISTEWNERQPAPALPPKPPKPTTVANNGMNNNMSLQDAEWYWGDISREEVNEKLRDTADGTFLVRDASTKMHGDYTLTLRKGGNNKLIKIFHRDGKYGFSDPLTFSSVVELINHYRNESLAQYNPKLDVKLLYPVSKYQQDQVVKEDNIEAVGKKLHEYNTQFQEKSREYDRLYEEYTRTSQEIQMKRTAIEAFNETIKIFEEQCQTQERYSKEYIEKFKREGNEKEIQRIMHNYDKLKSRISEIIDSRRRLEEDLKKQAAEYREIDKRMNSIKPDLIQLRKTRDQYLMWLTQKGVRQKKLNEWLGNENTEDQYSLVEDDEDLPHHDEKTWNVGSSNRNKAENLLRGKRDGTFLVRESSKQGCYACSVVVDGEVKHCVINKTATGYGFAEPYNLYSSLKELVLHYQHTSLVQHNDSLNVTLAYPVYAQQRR

| SMILES | IC50 (PI3Kα) | IC50 [1] | GI50 [2] | GI50 [3] | GI50 [4] |
| --- | --- | --- | --- | --- | --- |
| CS(=O)(=O)N1CCN(c2nc3c(N4CCOCC4)nc(-c4cnc(N)nc4)nc3n2[C@H]2CCN(S(C)(=O)=O)C2)CC1 [Example 27, 5-{8-[4-(Methylsulfonyl)piperazin-1-yl]-9-[(3S)-1-(methylsulfonyl)pyrrolidin-3-yl]-6-morpholin-4-yl-9H-purin-2-yl}pyrimidin-2-amine] | 20 to 50 nM | 30 to 100 nM | ≤ 5000 nM | ≤ 5000 nM | ≤ 5000 nM |
| CN(C)CCNc1nc2c(N3CCOCC3)nc(-c3cnc(N)nc3)nc2n1CC1CC1 [Example 28, N′-[2-(2-Aminopyrimidin-5-yl)-9-(cyclopropylmethyl)-6-morpholin-4-yl-9H-purin-8-yl]-N,N-dimethylethane-1,2-diamine] | 10 to 20 nM | 100 to 500 nM | ≤ 5000 nM | ≤ 5000 nM | ≤ 5000 nM |
| Nc1ncc(-c2nc(N3CCOCC3)c3nc(NCCN4CCOCC4)n(CC4CC4)c3n2)cn1 [Example 29, 2-(2-Aminopyrimidin-5-yl)-9-(cyclopropylmethyl)-6-morpholin-4-yl-N-(2-morpholin-4-ylethyl)-9H-purin-8-amine] | 10 to 20 nM | 100 to 500 nM | ≤ 5000 nM | ≤ 5000 nM | ≤ 5000 nM |
| Nc1ncc(-c2nc(N3CCOCC3)c3nc(NCCO)n(CC4CC4)c3n2)cn1 [Example 30, 2-{[2-(2-Aminopyrimidin-5-yl)-9-(cyclopropylmethyl)-6-morpholin-4-yl-9H-purin-8-yl]amino}ethanol] | 10 to 20 nM | 30 to 100 nM | ≤ 5000 nM | ≤ 5000 nM | ≤ 5000 nM |
| Nc1ncc(-c2nc(N3CCOCC3)c3nc(N4CCC(S(=O)(=O)c5ccccc5)C4)n(CC4CC4)c3n2)cn1 (stereo not drawn) [Example 31, 5-{9-(Cyclopropylmethyl)-6-morpholin-4-yl-8-[3-(phenylsulfonyl)pyrrolidin-1-yl]-9H-purin-2-yl}pyrimidin-2-amine] | < 10 nM | 30 to 100 nM | ≤ 5000 nM | ≤ 5000 nM | ≤ 5000 nM |
| Cc1nc(N)ncc1-c1nc(N2CCOCC2)c2nc(NCCNS(C)(=O)=O)n(CC3CC3)c2n1 [Example 32, N-(2-{[2-(2-Amino-4-methylpyrimidin-5-yl)-9-(cyclopropylmethyl)-6-morpholin-4-yl-9H-purin-8-yl]amino}ethyl)methanesulfonamide] | 20 to 50 nM | ≥ 500 nM | ≤ 5000 nM | ≤ 5000 nM | ≤ 5000 nM |
| Cc1nc(N)ncc1-c1nc(N2CCOCC2)c2nc(N3CCC(N(C)C)C3)n(CC3CC3)c2n1 (stereo not drawn) [Example 33, 5-{9-(Cyclopropylmethyl)-8-[3-(dimethylamino)pyrrolidin-1-yl]-6-morpholin-4-yl-9H-purin-2-yl}-4-methylpyrimidin-2-amine] | 20 to 50 nM | ≥ 500 nM | ≤ 5000 nM | ≤ 5000 nM | ≤ 5000 nM |
| Cc1nc(N)ncc1-c1nc(N2CCOCC2)c2nc(N3CCC(N(C)S(C)(=O)=O)C3)n(CC3CC3)c2n1 (stereo not drawn) [Example 34, N-{1-[2-(2-Amino-4-methylpyrimidin-5-yl)-9-(cyclopropylmethyl)-6-morpholin-4-yl-9H-purin-8-yl]pyrrolidin-3-yl}-N-methylmethanesulfonamide] | 10 to 20 nM | 100 to 500 nM | ≤ 5000 nM | ≤ 5000 nM | ≤ 5000 nM |
| Cc1nc(N)ncc1-c1nc(N2CCOCC2)c2nc(N3CCC(NS(C)(=O)=O)C3)n(CC3CC3)c2n1 (stereo not drawn) [Example 35, N-{1-[2-(2-Amino-4-methylpyrimidin-5-yl)-9-(cyclopropylmethyl)-6-morpholin-4-yl-9H-purin-8-yl]pyrrolidin-3-yl}methanesulfonamide] | 10 to 20 nM | ≥ 500 nM | ≤ 5000 nM | ≤ 5000 nM | ≤ 5000 nM |
